Key:
[1] = cited from earlier work
[2] = Solid state stability, PXRD; assay type: physicochemical; parameters: key: X: crystalline; S: stable
[3] = Solid state stability, HPLC meloxicam co-crystal assay; assay type: physicochemical
[4] = Solid state stability, impurities by HPLC; assay type: physicochemical
[5] = Solid state stability, physical and chemical (PXRD and HPLC), overall finding; conditions: 40° C./75% RH and 25° C./60% RH, three months
[6] = 25° C./60% RH, 1 mo., samples as per Example 7 or 17
[7] = 25° C./60% RH, 2 mo., samples as per Example 7 or 17
[8] = 25° C./60% RH, 3 mo., samples as per Example 7 or 17
[9] = 25° C./60% RH, Initial, samples as per Example 7 or 17
[10] = 40° C./75% RH, 1 mo., samples as per Example 7, 17 or 14
[11] = 40° C./75% RH, 2 mo., samples as per Example 7, 17 or 14
[12] = 40° C./75% RH, 3 mo., samples as per Example 7 or 17
[13] = 40° C./75% RH, Initial, samples as per Example 7, 17 or 14

O=C(O)CCC(=O)O [Succinic acid]
pKa (physchem): -0.01

O=C(O)c1ccc(O)cc1 [4-Hydroxybenzoic acid]
pKa (co-former) [1]: 4.58 | pKa (physchem): -0.38

O=C(O)CCc1ccccc1 [Hydrocinnamic acid]
pKa (co-former) [1]: 4.66 | pKa (physchem): -0.46

O=C(O)c1ccc2ccccc2c1O [1-Hydroxy-2-naphthoic acid]
pKa (physchem): 1.5

Cc1cnc(NC(=O)C2=C(O)c3ccccc3S(=O)(=O)N2C)s1.Cc1cnc(NC(=O)C2=C(O)c3ccccc3S(=O)(=O)N2C)s1.O=C(O)CCC(=O)O [Meloxicam:Succinic acid (2:1)]
PXRD [2, 6]: S | PXRD [2, 7]: S | PXRD [2, 8]: S | PXRD [2, 9]: X | PXRD [2, 10]: S | PXRD [2, 11]: S | PXRD [2, 12]: S | PXRD [2, 13]: X | Assay (% by HPLC) M % (Meloxicam Assay %) [3, 6]: 85.2% | Assay (% by HPLC) M % (Meloxicam Assay %) [3, 7]: 85.1% | Assay (% by HPLC) M % (Meloxicam Assay %) [3, 8]: 84.8% | Assay (% by HPLC) M % (Meloxicam Assay %) [3, 9]: 85.1% | Assay (% by HPLC) M % (Meloxicam Assay %) [3, 10]: 84.8% | Assay (% by HPLC) M % (Meloxicam Assay %) [3, 11]: 83.9% | Assay (% by HPLC) M % (Meloxicam Assay %) [3, 12]: 84.9% | Assay (% by HPLC) M % (Meloxicam Assay %) [3, 13]: 85.1% | Impurities (% w/w, by HPLC) Ethyl Meloxicam [4, 6]: BDL | Impurities (% w/w, by HPLC) Methyl Meloxicam [4, 6]: 0.01 % w/w | Impurities (% w/w, by HPLC) Other* (any other individual impurity) [4, 6]: 0.03 % w/w | Impurities (% w/w, by HPLC) Total [4, 6]: 0.14 % w/w | Impurities (% w/w, by HPLC) Ethyl Meloxicam [4, 7]: BDL | Impurities (% w/w, by HPLC) Methyl Meloxicam [4, 7]: BDL | Impurities (% w/w, by HPLC) Other* (any other individual impurity) [4, 7]: 0.03 % w/w | Impurities (% w/w, by HPLC) Total [4, 7]: 0.13 % w/w | Impurities (% w/w, by HPLC) Ethyl Meloxicam [4, 8]: BDL | Impurities (% w/w, by HPLC) Methyl Meloxicam [4, 8]: BDL | Impurities (% w/w, by HPLC) Other* (any other individual impurity) [4, 8]: 0.02 % w/w | Impurities (% w/w, by HPLC) Total [4, 8]: 0.13 % w/w | Impurities (% w/w, by HPLC) Ethyl Meloxicam [4, 9]: BDL | Impurities (% w/w, by HPLC) Methyl Meloxicam [4, 9]: 0.01 % w/w | Impurities (% w/w, by HPLC) Other* (any other individual impurity) [4, 9]: 0.03 % w/w | Impurities (% w/w, by HPLC) Total [4, 9]: 0.06 % w/w | Impurities (% w/w, by HPLC) Ethyl Meloxicam [4, 10]: BDL | Impurities (% w/w, by HPLC) Methyl Meloxicam [4, 10]: 0.01 % w/w | Impurities (% w/w, by HPLC) Other* (any other individual impurity) [4, 10]: 0.03 % w/w | Impurities (% w/w, by HPLC) Total [4, 10]: 0.14 % w/w | Impurities (% w/w, by HPLC) Ethyl Meloxicam [4, 11]: BDL | Impurities (% w/w, by HPLC) Methyl Meloxicam [4, 11]: BDL | Impurities (% w/w, by HPLC) Other* (any other individual impurity) [4, 11]: 0.03 % w/w | Impurities (% w/w, by HPLC) Total [4, 11]: 0.12 % w/w | Impurities (% w/w, by HPLC) Ethyl Meloxicam [4, 12]: BDL | Impurities (% w/w, by HPLC) Methyl Meloxicam [4, 12]: BDL | Impurities (% w/w, by HPLC) Other* (any other individual impurity) [4, 12]: 0.01 % w/w | Impurities (% w/w, by HPLC) Total [4, 12]: 0.08 % w/w | Impurities (% w/w, by HPLC) Ethyl Meloxicam [4, 13]: BDL | Impurities (% w/w, by HPLC) Methyl Meloxicam [4, 13]: 0.01 % w/w | Impurities (% w/w, by HPLC) Other* (any other individual impurity) [4, 13]: 0.03 % w/w | Impurities (% w/w, by HPLC) Total [4, 13]: 0.06 % w/w | Meloxicam Related Compounds A, B, C, and D by HPLC ([4]; any timepoint from initiation up to 3 months, 40° C./75% RH and 25° C./60% RH): ^#Meloxicam Related Compounds A, B, C, and D (see Table 4a) were not detectable at any timepoint from initiation up to 3 months. | physical and chemical stability [5]: physically and chemically stable

From patent publication US20220002283A1 (Mylan Laboratories Limited, priority 2019, published 2022)
